Assay results as given in ChEMBL document CHEMBL4270495, “Oleanane-, ursane-, and quinone methide friedelane-type triterpenoid derivatives: Recent advances in cancer treatment” (Eur J Med Chem, 2017).

How the values were obtained:
[1] = system: PC-3; test: Cytotoxicity in human PC3 cells assessed as reduction in cell viability incubated for 48 hrs by XTT assay; assay type: functional, cell-based; details: PC-3, 48 h
[2] = system: PC-3; test: Cytotoxicity in human PC3 cells assessed as reduction in cell viability incubated for 48 hrs by SRB assay; assay type: functional, cell-based; details: PC-3, 48 h
[3] = system: MCF7; test: Cytotoxicity in human MCF7 cells assessed as reduction in cell viability incubated for 48 hrs by SRB assay; assay type: functional, cell-based; details: MCF7, 48 h
[4] = system: A549; test: Cytotoxicity in human A549 cells assessed as reduction in cell viability incubated for 48 hrs by SRB assay; assay type: functional, cell-based; details: A549, 48 h
[5] = system: HL-60; test: Cytotoxicity in human HL60 cells assessed as reduction in cell viability incubated for 24 hrs by MTT assay; assay type: functional, cell-based; details: HL-60, 24 h
[6] = system: HMEC; test: Cytotoxicity in human HMEC cells assessed as reduction in cell viability incubated for 48 hrs by SRB assay; assay type: cell-based
[7] = system: MCF7; test: Cytotoxicity in human MCF7 cells assessed as reduction in cell viability incubated for 24 hrs by MTT assay; assay type: functional, cell-based; details: MCF7, 24 h
[8] = system: MDA-MB-231; test: Cytotoxicity in human MDA-MB-231 cells assessed as reduction in cell viability incubated for 24 hrs by MTT assay; assay type: functional, cell-based; details: MDA-MB-231, 24 h
[9] = system: 4T1; test: Cytotoxicity in mouse 4T1 cells assessed as reduction in cell viability incubated for 24 hrs by MTT assay; assay type: functional, cell-based; details: 4T1, 24 h
[10] = system: MCF7; test: Cytotoxicity in human MCF7 cells assessed as reduction in cell viability; assay type: functional, cell-based
[11] = system: HepG2; test: Cytotoxicity in human HepG2 cells assessed as reduction in cell viability; assay type: functional, cell-based
[12] = system: NCI-H1299; test: Cytotoxicity in human NCI-H1299 cells assessed as reduction in cell viability; assay type: functional, cell-based
[13] = system: T-ALL; test: Cytotoxicity in human T-ALL cells assessed as reduction in cell viability; assay type: functional, cell-based
[14] = system: HL-60; test: Cytotoxicity in human HL60 cells assessed as reduction in cell viability; assay type: functional, cell-based
[15] = system: Daudi; test: Cytotoxicity in human Daudi cells assessed as reduction in cell viability; assay type: functional, cell-based
[16] = Cytotoxicity in human BCP-ALL cells assessed as reduction in cell viability; assay type: functional, cell-based
[17] = system: H4; test: Cytotoxicity in human H4 cells assessed as reduction in cell viability incubated for 72 hrs by MTT assay; assay type: functional, cell-based; details: H4, 72 h
[18] = system: Bel-7402; test: Cytotoxicity in human Bel7402 cells assessed as reduction in cell viability incubated for 72 hrs by MTT assay; assay type: functional, cell-based; details: Bel-7402, 72 h
[19] = system: COLO 205; test: Cytotoxicity in human COLO205 cells assessed as reduction in cell viability incubated for 72 hrs by MTT assay; assay type: functional, cell-based; details: COLO 205, 72 h

In the case of C[C@H]1[C@H](C)CC[C@]2(C)CC[C@]3(C)C(=CC(=O)[C@@H]4[C@@]5(C)CC[C@H](OC(=O)/C=C/c6ccccc6)[C@](C)(C(=O)O)[C@@H]5CC[C@]43C)[C@H]12, the IC50 [1] is reported as 3.6 µM.
Work on CCC(=O)O[C@H]1CC[C@@]2(C)[C@@H](CC[C@]3(C)[C@@H]2CC=C2[C@@H]4[C@@H](C)[C@H](C)CC[C@]4(C)CC[C@]23C)[C@@]1(C)C(=O)O yielded an IC50 [2] of 31 µM, an IC50 [3] of 29 µM and an IC50 [4] of 29 µM. It also gave an IC50 [5] of 14 µM.
In the case of CC(=O)Oc1ccccc1C(=O)O[C@H]1CC[C@]2(C)[C@H]3CC=C4[C@@H]5[C@@H](C)[C@H](C)CC[C@]5(C(=O)O)CC[C@@]4(C)[C@]3(C)CC[C@H]2C1(C)C, the IC50 [6] is reported as over 100 µM, the IC50 [7] is reported as 72.2 µM and the IC50 [8] is reported as 63.9 µM. The IC50 [9] was 62 µM.
In the case of CC(=O)O/N=C1\CC[C@]2(C)[C@H]3CC=C4[C@@H]5[C@@H](C)[C@H](C)CC[C@]5(C(=O)O)CC[C@@]4(C)[C@]3(C)CC[C@H]2C1(C)C, the IC50 [10] is reported as 3.4 µM and the IC50 [11] is reported as 4.3 µM.
For CC1=C(O)C(=O)C=C2C1=CC=C1[C@@]2(C)CC[C@@]2(C)[C@@H]3C[C@](C)(C(=O)O)CC[C@]3(C)CC[C@]12C [CELASTROL], the IC50 [12] was under 1000 nM, the IC50 [13] was under 1000 nM and the IC50 [14] was under 1000 nM. The IC50 [15] was under 1000 nM and the IC50 [16] was under 1000 nM.
With CC(=O)Oc1cc2c(c(C)c1OC(C)=O)C(S(=O)(=O)O)C=C1C2(C)CC[C@@]2(C)[C@@H]3C[C@](C)(C(=O)O)CC[C@]3(C)CC[C@]12C (single isomer, unassigned) the IC50 [17] was 1370 nM, the IC50 [18] was 1730 nM and the IC50 [19] was 60 nM.
